Measurements as given in patent US20250049791A1, “Synthesis of MEK7 Inhibitors and methods of Use Thereof” (Northwestern University, priority 2023, published 2025).
Entries after “also recorded” stand apart in the source; their conditions may differ.

How the values were obtained:
[1] = system: 90 wildtype kinases; assay: ScanEDGE 97-kinase selectivity screen (DiscoverX/Eurofins), panel and S-score; type: binding
Source text: (§1) The ScanEDGE assay, completed by DiscoverX (Eurofins) is a proprietary active site-directed competition binding assay. Compounds that bind the kinase active site prevent kinase binding to the immobilized ligand, reducing the amount of kinase captured on the solid support. Hits are identified by measuring the amount of kinase captured in experimental vs, control samples by a qPCR method that detects an associated DNA label. According to data provided by Eurofins, a typical hit at 5-10% of control signal in a 1 μM assay as shown above is generally associated with a KD in the range of 100-1,000 nM. Readings with greater than 35% of control signal correspond to exceeding large dissociation constants.
Selectivity score (or S-score) is a quantitative measure of compound selectivity corresponding to the ratio of hits to the number of screened wildtype kinases.

[2] = system: p38α/β; assay: ScanEDGE competition binding, p38α/β; details: ScanEDGE screen
Source text: as §1

[3] = system: JNK1/2/3; assay: ScanEDGE competition binding, JNK1/2/3; details: ScanEDGE screen
Source text: as §1

[4] = target: T1, full-length MAP2K7 N-terminal GST fusion protein (Homo sapiens, UniProt O14733); assay: Whole-protein LC/TOF-MS of covalent labeling; type: binding; details: 2 equiv inhibitor, 5° C., 12 hours
T1 construct: purchased Carna Biosciences 07-147-10; host or cells: E. coli
T1 sequence (O14733 1-419): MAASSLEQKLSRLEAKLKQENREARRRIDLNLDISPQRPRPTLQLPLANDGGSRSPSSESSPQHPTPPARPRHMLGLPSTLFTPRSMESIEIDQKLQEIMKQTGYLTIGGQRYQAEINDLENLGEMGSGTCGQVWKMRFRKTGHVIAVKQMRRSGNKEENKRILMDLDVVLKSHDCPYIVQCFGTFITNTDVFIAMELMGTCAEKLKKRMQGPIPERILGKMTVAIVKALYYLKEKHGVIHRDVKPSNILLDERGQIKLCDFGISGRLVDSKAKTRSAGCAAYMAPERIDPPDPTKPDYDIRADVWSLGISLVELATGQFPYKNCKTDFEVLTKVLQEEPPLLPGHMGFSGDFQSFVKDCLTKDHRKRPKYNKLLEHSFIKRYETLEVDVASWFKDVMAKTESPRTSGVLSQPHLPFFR
Experimental: The construct was full-length MAP2K7 (1-419 amino acids of accession number NP_660186.1), which was prepared by the manufacturer as an N-terminal GST-fusion protein using an E. coli expression system. The construct was then purified by glutathione sepharose chromatography and shipped in a storage buffer containing 50 mM Tris —HCl, 150 mM NaCl, 0.05 mM Brij-35, 1 mM DTT, and 10% glycerol at pH=7.5.
Each whole-protein MS experiment was run with a 10 uL injection of a sample containing 50 μg of protein diluted to a final volume of 100 μL. The construct aliquots were first diluted to the appropriate volume with an aqueous solution of 150 mM NaCl and 50 mM Tris —HCl. The diluted samples were loaded on a Pierce spin column (ThermoFisher Scientific catalog number: 87777) to remove Brij-35 and finally eluted with the appropriate volume of the same buffer. Finally, 1.3 uL of DMSO (vehicle) or a 1 mM DMSO solution of covalent inhibitor was added, and the resulting roughly 101 uL solutions were incubated at 5° C. for 12 hours. The incubates were injected (10 uL) on an Agilent 6201 MSLC-TOF (ESI) with a protein column. A 10 minute water:acetonitrile gradient was performed, eluting recombinant proteins of interest in roughly 5 minutes. Masses were deconvoluted using MassHunter BioConfirm (maximum entropy).

[5] = system: Jurkat and KOPTK1; assay: Washout cytotoxicity experiment; type: cell-based; details: 18 hours with compound, washed, 30 hours
Experimental: T-cell cell lines Jurkat and KOPTK1 were plated in triplicates (20×10^4 cells per 96-well plate) and cultured with different concentrations of DK-2403 compound for 18 hours. Cells were washed twice to remove DK-2403 and incubated for 30 hours. Cell viability was measured (48 hours) using CellTiter-Glo luminescent cell viability assay.

[6] = system: JNK and ATF2 phosphorylation in T-ALL cells; assay: Immunoblot analysis of JNK and ATF2 phosphorylation; type: cell-based
Experimental: Cells were lysed with SDS lysis buffer containing (10 mM Tris pH 7.4 containing 1% SDS and 1 mM PMSF) and supplemented with Halt Protease and Phosphatase Inhibitor Cocktail (ThermoFisher) after 24 h of incubation. Protein lysates were electrophoresed onto SDS PAGE gel and transferred to the PVDF membrane using the iBLOT system. Antibodies phospho-SAPK/JNK (clone 81E11) (#4668) and SAPK/JNK (#9252) were used at 1:5000 dilution. Secondary antibodies cross-linked with HRP (anti-rabbit IgG #7074 and anti-mouse IgG #7076) were used for respective primary antibodies at concentrations 1:20,000. Protein detection was performed using West Femto Maximum Sensitivity Substrate (ThermoFisher) and Amersham Hyperfilm ECL (GE).

## O=C(CCl)Nc1cccc(Oc2cc(NCc3ccccc3)ncn2)c1 [Compound 25, N-(3-((6-(benzylamino)pyrimidin-4-yl)oxy)phenyl)-2-chloroacetamide]
[1]; 1000 nM, 90 non-mutant kinases
  Number of Hits, S(1): 0
  Number of Hits, S(10): 1
  Number of Hits, S(35): 1
  Selectivity Score S(10): 0.011
  Selectivity Score S(35): 0.011
[1]; 93 kinases
  selectivity score after adding MEK3, MEK5 and MEK6 (1/93): 0.011
[2]
  activity on p38α/β: no appreciable activity
[3]
  activity on JNK1/2/3: no appreciable activity
[4]
  covalent labeling of MAP2K7, whole-protein MS: covalent engagement; also recorded: Complete labeling
[5]
  cytotoxicity after washout: resistant to washout
[6]; 24 h incubation
  concentration that potently attenuated JNK and ATF2 phosphorylation: 5 to 10 µM
[6]; western blot, dose-response
  effect on phosphorylation of JNK and ATF2: decreased phosphorylation
